Source: article PMC6044830 (ACS Omega, 2017)

Molecular target: PDE4D2 (Homo sapiens, UniProt Q08499)
Experiment: PDE4D2 assay
Type: biochemical
Details: read-out: PDE4D2 (IC50); human recombinant PDE4D2, catalytic domain

PDE4D2, sequence (Q08499 381-740): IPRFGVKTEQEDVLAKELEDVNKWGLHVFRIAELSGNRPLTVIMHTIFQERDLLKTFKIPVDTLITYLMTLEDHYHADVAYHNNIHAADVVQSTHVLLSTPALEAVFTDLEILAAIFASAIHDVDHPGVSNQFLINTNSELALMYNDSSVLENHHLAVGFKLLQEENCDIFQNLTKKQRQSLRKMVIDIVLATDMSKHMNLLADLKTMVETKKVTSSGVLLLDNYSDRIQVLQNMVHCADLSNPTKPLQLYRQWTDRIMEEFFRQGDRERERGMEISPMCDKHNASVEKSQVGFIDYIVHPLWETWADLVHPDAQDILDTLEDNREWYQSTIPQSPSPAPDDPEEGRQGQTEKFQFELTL

Row | IC50 [µM] | SMILES
1 | 0.24 ± 0.04 | OCc1ccc2c(c1C#Cc1ccc(O)cc1)C(c1ccc(O)cc1)(c1ccc(O)cc1)c1cc(O)ccc1-2 [Compound 3, selaginpulvilin A]
2 | 0.14 ± 0.016 | Cc1ccc(-c2ccc(O)cc2)c(C(=C2C=CC(=O)C=C2)c2ccc(O)cc2)c1C#Cc1ccc(O)cc1 [Compound 8, selaginellin B]
